Values of other authors as cited in patent US9180154B2, “Method of manufacturing magnoliidae compounds” (Arizona Health Consulting Group, LLC, priority 2009, dated 2015).

Legend:
[1] = test system: D1-type and D2-type DA receptor; settings: D1-type versus D2-type DA receptor
D1 receptors = biological target: T1, D1 receptors (Rattus norvegicus, UniProt P18901); settings: rats with unilateral nigral lesion (DA receptor super sensitivity in striatum)
T1 construct: from tissue; host or cells: rats with unilateral nigral lesion (in vivo; striatum mentioned)

D2 receptor = biological target: T2, D2 receptor (Rattus norvegicus, UniProt P61169)
T2 construct: from tissue; host or cells: normal rats (in vivo; tissue not specified)
T2 sequence (P61169 whole entry): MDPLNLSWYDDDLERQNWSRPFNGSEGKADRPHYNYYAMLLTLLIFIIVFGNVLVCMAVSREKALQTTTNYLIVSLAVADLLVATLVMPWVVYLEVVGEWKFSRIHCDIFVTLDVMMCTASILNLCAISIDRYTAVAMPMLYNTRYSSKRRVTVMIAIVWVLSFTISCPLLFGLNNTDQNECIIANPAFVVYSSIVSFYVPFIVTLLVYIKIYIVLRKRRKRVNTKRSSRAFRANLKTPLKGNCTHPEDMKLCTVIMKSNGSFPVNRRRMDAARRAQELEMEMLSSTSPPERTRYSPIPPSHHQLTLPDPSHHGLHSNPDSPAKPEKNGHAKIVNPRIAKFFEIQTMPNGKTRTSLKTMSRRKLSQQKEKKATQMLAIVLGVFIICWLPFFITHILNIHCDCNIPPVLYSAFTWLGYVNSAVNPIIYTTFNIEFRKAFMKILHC

T1 sequence (P18901 whole entry): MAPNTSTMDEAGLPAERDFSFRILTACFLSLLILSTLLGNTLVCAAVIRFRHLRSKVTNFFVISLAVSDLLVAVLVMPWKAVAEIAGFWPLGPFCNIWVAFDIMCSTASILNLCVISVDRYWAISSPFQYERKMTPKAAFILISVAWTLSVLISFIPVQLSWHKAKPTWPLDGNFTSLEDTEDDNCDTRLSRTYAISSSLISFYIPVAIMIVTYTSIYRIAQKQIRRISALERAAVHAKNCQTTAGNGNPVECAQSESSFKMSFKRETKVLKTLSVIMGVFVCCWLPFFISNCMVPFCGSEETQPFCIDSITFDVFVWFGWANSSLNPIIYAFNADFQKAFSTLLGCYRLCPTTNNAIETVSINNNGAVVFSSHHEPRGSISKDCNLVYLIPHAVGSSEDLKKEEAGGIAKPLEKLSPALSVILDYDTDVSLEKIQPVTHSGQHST

In the case of `COc1ccc2c(c1OC)CN1CCc3cc4c(cc3C1C2)OCO4` (stereo not drawn) [THB, tetrahydroberberine], the “effect on D1-type and D2-type DA receptor binding” value [1] is listed as “equipotent”.
For `COc1cc2c(cc1O)[C@@H]1Cc3ccc(O)c(OC)c3CN1CC2` [l-SPD, l-Stepholidine], the “receptor action in lesioned rats” value (D1 receptors) is listed as “acts on D1 receptors as an agonist” and the “receptor action in normal rats” value (D2 receptor) is listed as “characteristics of D2 receptor antagonist”.
